Key:
[1] = tested on: PC3 human prostate cancer cells; experiment: Example S: in vitro anticancer screen, PC-3 cells, Wst1; assay type: cell-based; conditions: Homo sapiens, PC-3, approximately 20 hours, Wst1, read-out: PC-3, percent of cancer cell survival relative to vehicle treated cells
Experimental: Activity against PC3 human prostate cancer cells in vitro was assessed by a similar method. PC-3 prostate cancer cells were plated at 2×10^4 cells/well in 96 well flat bottom tissue culture plates, and incubated for approximately 20 hours with vehicle or test compounds at concentrations of 0.4, 0.5 or 2.5 μM as indicated for specific compounds in the right-hand column of Table 37. A 1/10th volume of Wst1 dye was added/well and incubated for two hours in the cell culture incubator. Samples were analyzed in triplicate on an EL800 Universal Microplate Reader at 450 nm, reference wavelength 630 nm.
(§1) Numerical values in the Table 37 represent percent of cancer cell survival relative to vehicle treated cells at the indicated concentrations, with values under 100 indicating anticancer cytotoxic activity at the drugs concentrations tested.

[2] = tested on: PC-3 prostate cancer cells; experiment: Example T: sensitisation of PC-3 cells to doxorubicin, oxaliplatin, paclitaxel or vincristine, Wst1; assay type: cell-based, human; conditions: PC-3 cells, 72 hours; for viability at 2.5 µM / viability at 5 µM: Homo sapiens, Wst1, vehicle = 100, read-out: No Chemo: percent cell survival; for viability at 2.5 µM: compound 2.5 μM alone; for Doxorubicin 3.5 μM: percent cell survival / Oxaliplatin 100 μM: percent cell survival / Paclitaxel 50 μM: percent cell survival / Vincristine 100 nM: percent cell survival: chemotherapy agent alone normalized to 100%; for viability at 5 µM: compound 5 μM alone
[3] = tested on: THP-1 cells; experiment: Example D: LPS-triggered THP-1 cell death assay, acute/5-hour and chronic/48-hour; assay type: cell-based, Human; conditions: 10 ng/ml LPS, 0.1 μM test compound, 48 hours
Experimental: Compounds of the invention were tested at 0.1 μM versus AC in the LPS-triggered THP-1 cell death assay. Both acute/5-hour and chronic/48-hour phases of cell death were assessed. Compounds were screened in batches with DMSO as the negative control and AC as the high activity control.

[4] = tested on: 4T1 murine breast cancer cells; experiment: Example S: in vitro anticancer screen, 4T1 cells, Wst1; assay type: cell-based, mouse; conditions: Mus musculus, 4T1, 18 h, 18 hr, Wst1; for viability at 1 µM: read-out: 4T1 1 μM, percent of cancer cell survival relative to vehicle treated cells; for viability at 5 µM: read-out: 4T1 5 μM, percent of cancer cell survival relative to vehicle treated cells
Experimental: Anticancer activity against 4T1 murine breast cancer cells cancer cells was assessed in vitro by seeding 1×10^4 cells/well in flat bottom culture plates, then treating with selected 1 μM or 5 μM concentrations of compounds for 18 hr after plating. Then 10 μL of Wst1 dye reagent, a tetrazolium dye indicator for […], was added/well and incubated approximately 2 hr before being assayed on the Biotek EL800 Universal microplate reader (450 nm, reference 630 nm).
as §1

[5] = compound 2.5 μM + doxorubicin 3.5 μM
[6] = compound 2.5 μM + oxaliplatin 100 μM
[7] = compound 2.5 μM + paclitaxel 50 μM
[8] = compound 2.5 μM + vincristine 100 nM
[9] = compound 5 μM + doxorubicin 3.5 μM
[10] = compound 5 μM + oxaliplatin 100 μM
[11] = compound 5 μM + paclitaxel 50 μM
[12] = compound 5 μM + vincristine 100 nM

CCOCCCCCCCCn1cnc2cnc3ccccc3c21 [CD, 1-(8-Ethoxyoctyl)-1H-imidazo[4,5-c]quinoline]
viability at 2.5 µM [1]: 16.6% | viability at 2.5 µM [2]: 16.6% | Doxorubicin 3.5 μM: percent cell survival [2, 5]: 19.5% | Oxaliplatin 100 μM: percent cell survival [2, 6]: 20.1% | Paclitaxel 50 μM: percent cell survival [2, 7]: 23.2% | Vincristine 100 nM: percent cell survival [2, 8]: 17.1% | Viable cell percent change, Chronic/48-hour, Mean [3]: 7.55%

COCCCCCCCCn1cnc2cnc3ccccc3c21 [CE, 1-(8-Methoxyoctyl)-1H-imidazo[4,5-c]quinoline]
viability at 2.5 µM [1]: 16.2% | viability at 2.5 µM [2]: 16.2% | Doxorubicin 3.5 μM: percent cell survival [2, 5]: 44.3% | Oxaliplatin 100 μM: percent cell survival [2, 6]: 18.8% | Paclitaxel 50 μM: percent cell survival [2, 7]: 23.5% | Vincristine 100 nM: percent cell survival [2, 8]: 15.6% | Viable cell percent change, Chronic/48-hour, Mean [3]: 4.71%

COCCCCCNc1ccnc2ccccc12 [CM, N-(5-Methoxypentyl)quinolin-4-amine]
viability at 1 µM [4]: 104% | viability at 5 µM [4]: 221% | viability at 5 µM [1]: 37.8% | viability at 5 µM [2]: 37.8% | Doxorubicin 3.5 μM: percent cell survival [2, 9]: 72.6% | Oxaliplatin 100 μM: percent cell survival [2, 10]: 78.1% | Paclitaxel 50 μM: percent cell survival [2, 11]: 74.8% | Vincristine 100 nM: percent cell survival [2, 12]: 81.3%

CCOc1ccccc1OCCCNc1ccnc2ccccc12 [CS, N-[3-(2-Ethoxyphenoxy)propyl]quinolin-4-amine]
viability at 2.5 µM [1]: 41.3% | viability at 2.5 µM [2]: 41.3% | Doxorubicin 3.5 μM: percent cell survival [2, 5]: 79% | Oxaliplatin 100 μM: percent cell survival [2, 6]: 84.2% | Paclitaxel 50 μM: percent cell survival [2, 7]: 69.7% | Vincristine 100 nM: percent cell survival [2, 8]: 82.8% | Viable cell percent change, Chronic/48-hour, Mean [3]: 66.27%

COc1ccccc1OCCCNc1ccnc2ccccc12 [CT, N-[3-(2-Methoxyphenoxy)propyl]quinolin-4-amine]
viability at 2.5 µM [1]: 34.5% | viability at 2.5 µM [2]: 34.5% | Doxorubicin 3.5 μM: percent cell survival [2, 5]: 63.2% | Oxaliplatin 100 μM: percent cell survival [2, 6]: 71.9% | Paclitaxel 50 μM: percent cell survival [2, 7]: 46.3% | Vincristine 100 nM: percent cell survival [2, 8]: 46.3% | Viable cell percent change, Chronic/48-hour, Mean [3]: 34.36%

c1ccc(COc2ccccc2OCCCNc2ccnc3ccccc23)cc1 [CU, N-{3-[2-(Benyloxy)phenoxy]propyl}quinolin-4-amine]
viability at 2.5 µM [1]: 37.6% | viability at 2.5 µM [2]: 37.6% | Doxorubicin 3.5 μM: percent cell survival [2, 5]: 65% | Oxaliplatin 100 μM: percent cell survival [2, 6]: 74.9% | Paclitaxel 50 μM: percent cell survival [2, 7]: 100.2% | Vincristine 100 nM: percent cell survival [2, 8]: 56.7% | Viable cell percent change, Chronic/48-hour, Mean [3]: 41.84%

CCCCCCOCCCCCCCCNc1cnc2ccccc2c1 [EL, N-[8-(Hexyloxy)octyl]quinolin-3-amine]
viability at 1 µM [4]: 108% | viability at 5 µM [4]: 39.4% | viability at 2.5 µM [1]: 41.8% | viability at 2.5 µM [2]: 41.8% | Doxorubicin 3.5 μM: percent cell survival [2, 5]: 73.7% | Oxaliplatin 100 μM: percent cell survival [2, 6]: 99.4% | Paclitaxel 50 μM: percent cell survival [2, 7]: 86.1% | Vincristine 100 nM: percent cell survival [2, 8]: 70.8%

CCOCc1nc2cnc3ccccc3c2n1CC(C)(C)O [FB, 1-[2-(Ethoxymethyl)-1H-imidazo[4,5-c]quinolin-1-yl]-2-methylpropan-2-ol]
viability at 1 µM [4]: 92.7% | viability at 5 µM [4]: 90% | viability at 2.5 µM [1]: 97.7% | viability at 2.5 µM [2]: 97.7% | Doxorubicin 3.5 μM: percent cell survival [2, 5]: 89.1% | Oxaliplatin 100 μM: percent cell survival [2, 6]: 95.5% | Paclitaxel 50 μM: percent cell survival [2, 7]: 93.2% | Vincristine 100 nM: percent cell survival [2, 8]: 98.6%

CCCCCCCCCCCCCCCc1nc2c(O)nc3ccccc3c2n1CC(C)C [FD, 1-Isobutyl-2-pentadecyl-1H-imidazo[4,5-c]quinolin-4-ol]
viability at 1 µM [4]: 106% | viability at 5 µM [4]: 112% | viability at 5 µM [1]: 112% | viability at 5 µM [2]: 112% | Doxorubicin 3.5 μM: percent cell survival [2, 9]: 101% | Oxaliplatin 100 μM: percent cell survival [2, 10]: 85.3% | Paclitaxel 50 μM: percent cell survival [2, 11]: 95.6% | Vincristine 100 nM: percent cell survival [2, 12]: 98.7%

CCCCCCCCCCCCCCCCn1cnc2cnc3ccccc3c21 [FE, 1-Hexadecyl-1H-imidazo[4,5-c]quinoline]
viability at 1 µM [4]: 108% | viability at 5 µM [4]: 31.7% | viability at 5 µM [1]: 34.2% | viability at 5 µM [2]: 34.2% | Doxorubicin 3.5 μM: percent cell survival [2, 9]: 46.8% | Oxaliplatin 100 μM: percent cell survival [2, 10]: 67.6% | Paclitaxel 50 μM: percent cell survival [2, 11]: 113.7% | Vincristine 100 nM: percent cell survival [2, 12]: 37.3%

CCCCCCCCCCCCCCCCn1cnc2c(N)nc3ccccc3c21 [FF, 1-Hexadecyl-1H-imidazo[4,5-c]quinolin-4-amine]
viability at 1 µM [4]: 103% | viability at 5 µM [4]: 102% | viability at 5 µM [1]: 93% | viability at 5 µM [2]: 93% | Doxorubicin 3.5 μM: percent cell survival [2, 9]: 90.7% | Oxaliplatin 100 μM: percent cell survival [2, 10]: 95.2% | Paclitaxel 50 μM: percent cell survival [2, 11]: 136.1% | Vincristine 100 nM: percent cell survival [2, 12]: 110.1%

CCCCCCCCCCCCOCCn1cnc2c(N(C)C)nc3ccccc3c21 [FH, 1-[2-(Dodecyloxy)ethyl]-N,N-dimethyl-1H-imidazo[4,5-c]quinolin-4-amine]
viability at 1 µM [4]: 101% | viability at 5 µM [4]: 102% | viability at 5 µM [1]: 89% | viability at 5 µM [2]: 89% | Doxorubicin 3.5 μM: percent cell survival [2, 9]: 79.6% | Oxaliplatin 100 μM: percent cell survival [2, 10]: 82.3% | Paclitaxel 50 μM: percent cell survival [2, 11]: 131.8% | Vincristine 100 nM: percent cell survival [2, 12]: 114.9%

CCCCCCCCCCCCn1cnc2cnc3ccccc3c21 [FY, 1-Dodecyl-1H-imidazo[4,5-c]quinoline]
viability at 1 µM [4]: 95.2% | viability at 5 µM [4]: 26.8% | viability at 2.5 µM [1]: 36% | viability at 2.5 µM [2]: 36% | Doxorubicin 3.5 μM: percent cell survival [2, 5]: 74.6% | Oxaliplatin 100 μM: percent cell survival [2, 6]: 91.5% | Paclitaxel 50 μM: percent cell survival [2, 7]: 91% | Vincristine 100 nM: percent cell survival [2, 8]: 80.1%

CCCCCCCCCCOCCCn1cnc2cnc3ccccc3c21 [FZ, 1-[3-(Decyloxy)propyl]-1H-imidazo[4,5-c]quinoline]
viability at 1 µM [4]: 91.4% | viability at 5 µM [4]: 56.6% | viability at 5 µM [1]: 32.7% | viability at 5 µM [2]: 32.7% | Doxorubicin 3.5 μM: percent cell survival [2, 9]: 39.6% | Oxaliplatin 100 μM: percent cell survival [2, 10]: 67.7% | Paclitaxel 50 μM: percent cell survival [2, 11]: 114.8% | Vincristine 100 nM: percent cell survival [2, 12]: 38.5%

CCCCCCOc1cccc(OCCCn2cnc3cnc4ccccc4c32)c1 [GD, 1-{3-[3-(Hexyloxy)phenoxy]propyl}-1H-imidazo[4,5-c]quinoline]
viability at 2.5 µM [1]: 24.3% | viability at 2.5 µM [2]: 24.3% | Doxorubicin 3.5 μM: percent cell survival [2, 5]: 39.5% | Oxaliplatin 100 μM: percent cell survival [2, 6]: 26.7% | Paclitaxel 50 μM: percent cell survival [2, 7]: 27% | Vincristine 100 nM: percent cell survival [2, 8]: 23.5%

Reference: patent US20250034139A1, “AMINE COMPOUNDS HAVING ANTI-INFLAMMATORY, ANTIFUNGAL, ANTIPARASITIC, AND ANTICANCER ACTIVITY” (PHARMA CINQ, LLC, priority 2013, published 2025)
